This is an account of results in BindingDB's records for patent US9790233 (Case Western Reserve University, 2017).

The target of this assay is T1, 15-hydroxyprostaglandin dehydrogenase [NAD(+)] (Homo sapiens, UniProt P15428).
T1 sequence (P15428 whole entry): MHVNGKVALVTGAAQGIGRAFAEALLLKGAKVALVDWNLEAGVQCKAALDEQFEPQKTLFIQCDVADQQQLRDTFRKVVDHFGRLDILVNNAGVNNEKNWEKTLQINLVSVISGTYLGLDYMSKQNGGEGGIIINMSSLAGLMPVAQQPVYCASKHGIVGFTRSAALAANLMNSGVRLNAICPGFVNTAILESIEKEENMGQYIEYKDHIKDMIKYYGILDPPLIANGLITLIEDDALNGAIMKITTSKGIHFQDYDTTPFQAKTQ
The experiment in a line: In Vitro Assay.

Each structure is given as a SMILES string.

Consider `CCCCC(=O)c1sc2nc(-c3nccs3)ccc2c1N` [US9790233, ID SW206992], for which the IC50 was 1.41 nM.
